Measurements published in patent publication US5053070A, “Pyrimidine derivatives, preparation processes thereof, herbicide containing the same, and herbicidal compositions containing the same along with other active ingredient” (Mitsui Toatsu Chemicals, Incorporated, priority 1988, dated 1991).
Values after ≈ are worked out from the molar mass of the structure shown.

How the values were obtained:
[1] = test system: ALS (acetolactate syntase); assay: ALS enzyme assay (Test 1); type: biochemical, pea; conditions: 1,000 ppm (0.5 mg/0.5 ml)
Description: To determine the selectivity in enzyme level between crops and weeds, and ALS enzyme assay was conducted using pea as a representative of broadleaf crops and barnyardgrass as a representative of narrowleaf weeds.
After seeds of pea and barnyardgrass were allowed to germinate at 25° C. for 8-14 days in a dark place, partially-purified suspensions (Suspensions A) of acetolactate syntase were separately obtained from seedlings in accordance with the method described in the literature, Plant Physiology, 75, 827-831.
In a test tube, 0.5 mg of one of test compounds was weighed, followed by the addition of 0.15 ml of a 20 mM K2 HPO4 solution and 0.25 ml of a reaction substrate medium which consisted of 40 mM of K2 HPO4, 40 mM of sodium pyruvate, 1 mM of TPP, 1 mM of MgCl2 and 20 μM of FAD so that 0.4 ml of a reaction solution (Solution B) was prepared. Added to 0.4 ml of Solution B was 0.1 ml of suspension A. After the resultant mixture was shaken for 1 hour in a thermostat water bath controlled at 30° C., 50 μl of 6N sulfuric acid were added to terminate the reaction.
Next, the reaction-terminated liquid mixture was transferred into a thermostat water bath controlled at 60° C. and was heated for 15 minutes. Thereafter, 0.5 ml of a 0.5% creatine solution and 0.5 ml of a 5% alkaline α-naphthol solution were added, and the resultant mixture was maintained at 60° C. for 15 minutes. As a result, the test solution developed a pink-red color. After the above operation, the absorbance of the test solution at 525 nm was measured by a spectrophotometer (Absorbance 1 of Test Compound).
On the other hand, the absorbance (Absorbance 2 of Blank) of a solution obtained by subjecting a portion of Solution B, said portion being free of the test compound, to the above operation and the absorbance (Absorbance 3 of sulfuric acid terminated) of another solution obtained by subjecting another portion of Solution B, said portion containing 50 μl of 6N sulfuric acid as a test compound, were measured at the same time. Based on the values of the respective measurements, the enzyme assay at 1,000 ppm (0.5 mg/0.5 ml) of each compound was determined. [formula]

[2] = test system: rice; assay: Treatment of soil under submerged condition, post-emergence (Test 5), injury; type: in vivo; conditions: 30 g ai/a granule, 30 days later
Description: (§1) 1/5000-are Wagner pots were filled with soil. Seeds or tubers of barnyardgrass, Monochoria vaginalis, bulrush, Sagittaria pygmaea, Cyperus serroylnus and Eleocharis kuroguwai were seeded or planted under submerged condition. Two pairs of rice seedlings (2-3 leaf stage), which had been reared in advance, were transplanted to each pot and were allowed to grow in a green house. Each pair consisted of two rice seedlings. When the barnyardgrass grew to two-leaf stage, each pot was treated with a granule which had been prepared by processing a predetermined amount of the test composition in accordance with a similar method to the method described in Formulation Example 9. The state of emergence of weeds and the state of injury of rice were observed 30 days later.
(§2) In the table, the degrees of damages of the test plants and the degrees of injury of the rice are shown in a similar manner to Example 2.

[3] = test system: barnyardgrass; assay: Treatment of soil under submerged condition, post-emergence (Test 5); type: in vivo; conditions: 30 g ai/a granule, post-emergence (barnyardgrass two-leaf stage), 30 days later
Description: as §1, §2

[4] = test system: bulrush; assay: as above; type: in vivo; conditions: 30 g ai/a granule, 30 days later
Description: as §1, §2

[5] = test system: Sagittaria pygmaea; assay: as above; type: in vivo; conditions: 30 g ai/a granule, 30 days later
Description: as §1, §2

[6] = test system: common lambsquarters; assay: Upland soil application test (Test 2); type: in vivo; conditions: 30 g ai/a, soil spray before emergence, 30 days later
Description: (§3) Resin-made 1/2500-are pots were filled with the soil of an upland field. After they were fertilized, soybean, peanut and cotton were seeded and 2-3 cm soil covering was applied. Seeds of redroot pigweed, common lambsquarters, barnyardgrass, green foxtail, large crabgrass, foxtail meadow and johnsongrass had been uniformly mixed with the soil. They were allowed to germinate in a green house. One day later (before emergence of weeds), a wettable powder prepared from a predetermined amount of each test compound in a similar manner to the method described in Formulation Example 1 was diluted with water and then sprayed evenly at an application rate equal to 10 l per are onto the surface of the soil by means of a pressure-operated ULV (ultra low volume) sprayer. Influence to the crops and weeds were observed 30 days later. The results are shown in Table 3, in which the degree of damages of each test plant and the degree of injury to each crop were determined by comparing the air-dried weights of the test plant and crop with those of the corresponding plant and crop in untreated pots and are shown in accordance with the following standard: […]

[7] = test system: redroot pigweed; assay: Upland soil application test (Test 2); type: in vivo; conditions: 30 g ai/a, soil spray before emergence, 30 days later
Description: as §3

[8] = test system: large crabgrass; assay: Upland soil application test (Test 2); type: in vivo; conditions: 30 g ai/a, soil spray before emergence, 30 days later
Description: as §3

[9] = test system: barnyardgrass; assay: Upland soil application test (Test 2); type: in vivo; conditions: 30 g ai/a, soil spray before emergence, 30 days later
Description: as §3

[10] = test system: narrowleaf waterplantain; assay: Petri dish test (Test 6); type: in vivo; conditions: 336 h; seeds on filter paper, 25° C., 14 days; read-out: I80 (ppm)
Description: A filter paper was placed in each glass-made Petri dish having a diameter of 9 cm. A compound dissolved in acetone was added in a predetermined amount. The filter paper was then dried in air to remove acetone. Seeds of narrowleaf waterplantain were placed on the filter paper and 10 ml of water were poured into the Petri dish. The seeds were allowed to grow at 25° C. in a bright room. Fourteen days later, the state of growth of narrowleaf water-plantain was observed.
In the table, the degree of damages of the test plant was determined by comparing the state of growth of the plant with that of the plant in an untreated group and is shown in accordance with the following standard: […]

[11] = test system: soybean; assay: Upland soil application test (Test 2), crop injury; type: in vivo; conditions: 30 g ai/a, soil spray before emergence, 30 days later
Description: as §3

[12] = test system: peanut; assay: Upland soil application test (Test 2), crop injury; type: in vivo; conditions: 30 g ai/a, soil spray before emergence, 30 days later
Description: as §3

[13] = test system: cotton; assay: Upland soil application test (Test 2), crop injury; type: in vivo; conditions: 30 g ai/a, soil spray before emergence, 30 days later
Description: as §3

[14] = test system: soybean; assay: Upland foliar application test (Test 3), crop injury; type: in vivo; conditions: 30 g ai/a, foliar spray at 2-3 leaves, 30th day
Description: (§4) Resin-made 1/10000-are pots were filled with the soil of an upland field. Redroot pigweed, common lambsquarters, foxtail meadow, johnsongrass, barnyardgrass, green foxtail, large crabgrass, soybean, peanut and cotton were separately seeded and were allowed to germinate in a green house. When each plant grew to the stage of 2-3 leaves, an emulsion formulated from a predetermined amount of each test compound in a similar manner to the method described in Formulation Example 11 was diluted with water to a predetermined dilution rate and then sprayed at an application rate equal to 5 l per are onto the foliage of each plant by means of a pressure-operated ULV (ultra low volume) sprayer. Influence to the crops and weeds were observed on the 30th day after the spray of the herbicides. The results are shown in Table 4 in which the degree of damages of each test plant and the degree of injury to each crop are shown in a similar manner to Test 2.

[15] = test system: peanut; assay: as above; type: in vivo; conditions: 30 g ai/a, foliar spray at 2-3 leaves, 30th day
Description: as §4

[16] = test system: cotton; assay: as above; type: in vivo; conditions: 30 g ai/a, foliar spray at 2-3 leaves, 30th day
Description: as §4

Row | Structure (SMILES) | Inhibitory activity (%) Pea [1] [%] | Injury Rice [2] | Herbicidal effects Barnyardgrass [3] | Herbicidal effects Bulrush [4] | Herbicidal effects Sagittaria Pygmaea [5] | Herbicidal effects Common lambsquarters [6] | Herbicidal effects Redroot pigweed [7] | Herbicidal effects Large crabgrass [8] | Herbicidal effects Barnyardgrass [9] | IC80 [10] [µg/mL] | Injury Soybean [11] | Injury Peanut [12] | Injury Cotton [13] | Injury Soybean [14] | Injury Peanut [15] | Injury Cotton [16]
1 | C=C(Cl)CON=Cc1ccccc1Oc1nc(OC)cc(OC)n1 [Compound No. 14] | 0 | 1 (71-90 (Slight damages)) | 5 (0-5 (Death)) | 5 (0-5 (Death)) | 4 (6-10 (Severe damages)) | 4 (6-10 (Severe damages)) | 4 (6-10 (Severe damages)) | 5 (0-5 (Death)) | 5 (0-5 (Death)) | 100 (≈ 286 µM) | 0 (91-100 (No damages)) | 0 (91-100 (No damages)) | 0 (91-100 (No damages)) | 0 (91-100 (No damages)) | 0 (91-100 (No damages)) | 0 (91-100 (No damages))
2 | COc1cc(OC)nc(Oc2ccccc2C=NOCc2ccccc2)n1 [Compound No. 15] | 0 | 1 (71-90 (Slight damages)) | 5 (0-5 (Death)) | 4 (6-10 (Severe damages)) | 3 (11-40 (Medium damages)) | 4 (6-10 (Severe damages)) | 4 (6-10 (Severe damages)) | 4 (6-10 (Severe damages)) | 5 (0-5 (Death)) | 100 (≈ 274 µM) | 0 (91-100 (No damages)) | 0 (91-100 (No damages)) | 0 (91-100 (No damages)) | 0 (91-100 (No damages)) | 0 (91-100 (No damages)) | 0 (91-100 (No damages))
3 | COc1cc(OC)nc(Oc2ccccc2C=NOCc2ccc(Cl)cc2Cl)n1 [Compound No. 17] | 0 | 0 (91-100 (No damages)) | 3 (11-40 (Medium damages)) | 4 (6-10 (Severe damages)) | 3 (11-40 (Medium damages)) | 4 (6-10 (Severe damages)) | 3 (11-40 (Medium damages)) | 3 (11-40 (Medium damages)) | 3 (11-40 (Medium damages)) | 100 (≈ 230 µM) | 0 (91-100 (No damages)) | 0 (91-100 (No damages)) | 0 (91-100 (No damages)) | 0 (91-100 (No damages)) | 0 (91-100 (No damages)) | 0 (91-100 (No damages))
4 | COc1cc(OC)nc(Oc2ccccc2C=NO)n1 [Compound No. 24, 2-(4,6-dimethoxy-2-pyrimidinyloxy)-benzaloxime] | 0 | 1 (71-90 (Slight damages)) | 5 (0-5 (Death)) | 5 (0-5 (Death)) | 4 (6-10 (Severe damages)) | 4 (6-10 (Severe damages)) | 4 (6-10 (Severe damages)) | 4 (6-10 (Severe damages)) | 4 (6-10 (Severe damages)) | 100 (≈ 363 µM) | 0 (91-100 (No damages)) | 0 (91-100 (No damages)) | 0 (91-100 (No damages)) | 1 (71-90 (Slight damages)) | 0 (91-100 (No damages)) | 1 (71-90 (Slight damages))
5 | COc1cc(OC)nc(Oc2ccccc2C=NOCC=Cc2cccc(Cl)c2)n1 [Compound No. 26, 0-(3-chlorocinnamyl)-2-(4,6-dimethoxy-2-pyrimidinyloxy)benzaldxime] | 8 | 0 (91-100 (No damages)) | 5 (0-5 (Death)) | 4 (6-10 (Severe damages)) | 4 (6-10 (Severe damages)) | 4 (6-10 (Severe damages)) | 5 (0-5 (Death)) | 5 (0-5 (Death)) | 5 (0-5 (Death)) | 2 (≈ 4.7 µM) | 0 (91-100 (No damages)) | 0 (91-100 (No damages)) | 0 (91-100 (No damages)) | 0 (91-100 (No damages)) | 0 (91-100 (No damages)) | 0 (91-100 (No damages))
6 | COc1cc(OC)nc(Oc2ccccc2C=NOCC=Cc2ccccc2Cl)n1 [Compound No. 27] | 12 | 0 (91-100 (No damages)) | 5 (0-5 (Death)) | 4 (6-10 (Severe damages)) | 4 (6-10 (Severe damages)) | 4 (6-10 (Severe damages)) | 5 (0-5 (Death)) | 5 (0-5 (Death)) | 4 (6-10 (Severe damages)) | 2 (≈ 4.7 µM) | 0 (91-100 (No damages)) | 0 (91-100 (No damages)) | 0 (91-100 (No damages)) | 0 (91-100 (No damages)) | 0 (91-100 (No damages)) | 0 (91-100 (No damages))
